Legend:
[1] = tested on: human control myotubes LHCN-M2; experiment: In vitro toxicity in human myotubes, CytoTox 96 colorimetric assay; assay type: cell-based; settings: concentrations between 10 nM and 2 mM; 24 hours of incubation; FIG. 1
Protocol: These assays were carried out in human control myotubes LHCN-M2 after 14 days in differentiation medium. To determine the toxicity of the different analyzed compounds, particularly AHK1 and AHK2 according to the invention, these compounds were added to the culture medium for 24 hours at 37° C. at different concentrations (0-2 mM). For comparison purposes, the same assay was performed by adding reference compound S-107. Cell viability was determined by means of Cytotox 96 (Promega) colorimetric assay following instructions in the manual.

[2] = tested on: mdx mice; experiment: Grip strength of dystrophic mdx mice; assay type: in vivo, mouse; settings: 0.25 mg/mL in drinking water, one-month old mdx mice
Protocol: One-month old male dystrophic mdx mice supplied by Jackson Laboratory (https://www.jax.org/strain/001801) were used. The biological assays for measuring the effect of the Ahulken (AHK) compounds on muscle function were performed with one-month old mice, whereas the in vivo assays for determining the effect on the heart and CNS were performed with four-month old mice. The one-month old mice were treated with compound AHK1 or compound AHK2 for 5 weeks, where said compounds were administered in drinking water at a concentration of 0.25 mg/mL. The muscle strength of the front paws was measured every week using a grip strength meter and the obtained value was normalized by the body weight of the animal. To that end, the indications described in the TREAT-NMD Neuromuscular Network protocol (http://www.treat-nmd.eu/downloads/file/sops/dmd/MDX/DMD_M.2.2.001.pdf) were followed.

[3] = tested on: tibialis anterior muscle of mdx mice; experiment: Gene expression pattern of tibialis anterior muscle of mdx mice (RT Profiler PCR Array); assay type: in vivo, mouse
Protocol: In turn, the biochemical analysis of the tibialis anterior muscle was performed by means of RNA extraction and expression pattern analysis in control mice, mdx mice and mice subjected to different treatments. To that end, the […] skeletal muscle, myogenesis and myopathy RT Profiler PCR Array (PAHS-099Z, QIAGEN) was used, using cDNA mixtures of at least 3 mice per group. The expression profile of 84 genes involved in physiopathological mechanisms of the skeletal muscle was thus analyzed. The experiments were conducted in 7300 Real-Time PCR equipment (Applied Biosystems) and the results obtained were analyzed using QIAGEN online software (http://www.sabiosciences.com/dataanalysis.php).

[4] = tested on: mdx mice; experiment: Muscle degeneration/regeneration: percentage of central nuclei in muscle cryosections of mdx mice; assay type: in vivo, mouse; settings: 5-week treatment of mdx mice; 0.25 mg/mL in drinking water; FIG. 5
Protocol: After concluding the 5-week treatment, the tibialis anterior muscle was obtained and processed for subsequent biochemical and immunohistological analysis to determine the degree of muscle damage. Cell-death derived regeneration was determined in muscle cryosections by means of quantifying the percentage of central nuclei using standard immunofluorescence techniques for detecting collagen IV and cell nuclei.

[5] = tested on: fibers isolated from mouse flexor digitorum brevis muscle (dystrophic MDX fibers); experiment: Baseline intracellular calcium levels in mouse muscle fibers (Fura 2-AM); assay type: cell-based; settings: 150 nM, overnight treatment; FIG. 2
Protocol: Fibers isolated from mouse flexor digitorum brevis muscle were cultured overnight in the presence or absence of compounds AHK1 and AHK2 at a concentration of 150 nM. Baseline intracellular calcium levels were evaluated by means of incubating the fibers with Fura 2-AM ratiometric fluorochrome (4 μM) and pluronic acid (0.02%) for 30 minutes at 37° C., in the culture medium. The fibers were viewed with a high-resolution digital camera and intracellular [Ca^2+] was estimated by means of a 340 nm/380 nm excitation ratio.

[6] = molecular target: T1, RyR1-calstabin1 interaction (Homo sapiens, UniProt P21817+P62942); experiment: RyR1-calstabin1 interaction by in situ PLA in human myotubes under SIN1 nitro-oxidative stress; assay type: cell-based; settings: pre-treated 12 hours at 150 nM; SIN1 5 mM 30 minutes; FIG. 3
T1 construct: endogenous in cells; host or cells: LHCN-M2 human myotubes (differentiated for 9 days)
Protocol: This assay was carried out in human control myotubes LHCN-M2 after 9 days in differentiation medium. Said myotubes were pre-treated for 12 hours with compounds AHK1 and AHK2 at a concentration of 150 nM. After treatment, the myotubes were subjected to peroxynitrite-induced nitro-oxidative stress by means of the addition of SIN1 (5 mM) for 30 minutes. RyR1-calstabin colocalization was analyzed by means of the in situ proximity ligation technique (in situ PLA) for which Sigma's Duolink II Network Fluorescence Kit and RyR1- and calstabin 1-specific antibodies were used. This technique allows detecting the exact location of two antigens located at a distance less than 40 nm from one another. To determine RyR1-calstabin-1 colocalization, 3 photographs were quantified for each condition with about 9 myotubes per field, using Image J computer software (http://rsb.info.nih.gov/ij/download.html). The colocalization area in each image was normalized to the myosin expression area, which was determined by means of immunofluorescence with a fluorescein-conjugated specific antibody.

T1 sequence (P21817 whole entry): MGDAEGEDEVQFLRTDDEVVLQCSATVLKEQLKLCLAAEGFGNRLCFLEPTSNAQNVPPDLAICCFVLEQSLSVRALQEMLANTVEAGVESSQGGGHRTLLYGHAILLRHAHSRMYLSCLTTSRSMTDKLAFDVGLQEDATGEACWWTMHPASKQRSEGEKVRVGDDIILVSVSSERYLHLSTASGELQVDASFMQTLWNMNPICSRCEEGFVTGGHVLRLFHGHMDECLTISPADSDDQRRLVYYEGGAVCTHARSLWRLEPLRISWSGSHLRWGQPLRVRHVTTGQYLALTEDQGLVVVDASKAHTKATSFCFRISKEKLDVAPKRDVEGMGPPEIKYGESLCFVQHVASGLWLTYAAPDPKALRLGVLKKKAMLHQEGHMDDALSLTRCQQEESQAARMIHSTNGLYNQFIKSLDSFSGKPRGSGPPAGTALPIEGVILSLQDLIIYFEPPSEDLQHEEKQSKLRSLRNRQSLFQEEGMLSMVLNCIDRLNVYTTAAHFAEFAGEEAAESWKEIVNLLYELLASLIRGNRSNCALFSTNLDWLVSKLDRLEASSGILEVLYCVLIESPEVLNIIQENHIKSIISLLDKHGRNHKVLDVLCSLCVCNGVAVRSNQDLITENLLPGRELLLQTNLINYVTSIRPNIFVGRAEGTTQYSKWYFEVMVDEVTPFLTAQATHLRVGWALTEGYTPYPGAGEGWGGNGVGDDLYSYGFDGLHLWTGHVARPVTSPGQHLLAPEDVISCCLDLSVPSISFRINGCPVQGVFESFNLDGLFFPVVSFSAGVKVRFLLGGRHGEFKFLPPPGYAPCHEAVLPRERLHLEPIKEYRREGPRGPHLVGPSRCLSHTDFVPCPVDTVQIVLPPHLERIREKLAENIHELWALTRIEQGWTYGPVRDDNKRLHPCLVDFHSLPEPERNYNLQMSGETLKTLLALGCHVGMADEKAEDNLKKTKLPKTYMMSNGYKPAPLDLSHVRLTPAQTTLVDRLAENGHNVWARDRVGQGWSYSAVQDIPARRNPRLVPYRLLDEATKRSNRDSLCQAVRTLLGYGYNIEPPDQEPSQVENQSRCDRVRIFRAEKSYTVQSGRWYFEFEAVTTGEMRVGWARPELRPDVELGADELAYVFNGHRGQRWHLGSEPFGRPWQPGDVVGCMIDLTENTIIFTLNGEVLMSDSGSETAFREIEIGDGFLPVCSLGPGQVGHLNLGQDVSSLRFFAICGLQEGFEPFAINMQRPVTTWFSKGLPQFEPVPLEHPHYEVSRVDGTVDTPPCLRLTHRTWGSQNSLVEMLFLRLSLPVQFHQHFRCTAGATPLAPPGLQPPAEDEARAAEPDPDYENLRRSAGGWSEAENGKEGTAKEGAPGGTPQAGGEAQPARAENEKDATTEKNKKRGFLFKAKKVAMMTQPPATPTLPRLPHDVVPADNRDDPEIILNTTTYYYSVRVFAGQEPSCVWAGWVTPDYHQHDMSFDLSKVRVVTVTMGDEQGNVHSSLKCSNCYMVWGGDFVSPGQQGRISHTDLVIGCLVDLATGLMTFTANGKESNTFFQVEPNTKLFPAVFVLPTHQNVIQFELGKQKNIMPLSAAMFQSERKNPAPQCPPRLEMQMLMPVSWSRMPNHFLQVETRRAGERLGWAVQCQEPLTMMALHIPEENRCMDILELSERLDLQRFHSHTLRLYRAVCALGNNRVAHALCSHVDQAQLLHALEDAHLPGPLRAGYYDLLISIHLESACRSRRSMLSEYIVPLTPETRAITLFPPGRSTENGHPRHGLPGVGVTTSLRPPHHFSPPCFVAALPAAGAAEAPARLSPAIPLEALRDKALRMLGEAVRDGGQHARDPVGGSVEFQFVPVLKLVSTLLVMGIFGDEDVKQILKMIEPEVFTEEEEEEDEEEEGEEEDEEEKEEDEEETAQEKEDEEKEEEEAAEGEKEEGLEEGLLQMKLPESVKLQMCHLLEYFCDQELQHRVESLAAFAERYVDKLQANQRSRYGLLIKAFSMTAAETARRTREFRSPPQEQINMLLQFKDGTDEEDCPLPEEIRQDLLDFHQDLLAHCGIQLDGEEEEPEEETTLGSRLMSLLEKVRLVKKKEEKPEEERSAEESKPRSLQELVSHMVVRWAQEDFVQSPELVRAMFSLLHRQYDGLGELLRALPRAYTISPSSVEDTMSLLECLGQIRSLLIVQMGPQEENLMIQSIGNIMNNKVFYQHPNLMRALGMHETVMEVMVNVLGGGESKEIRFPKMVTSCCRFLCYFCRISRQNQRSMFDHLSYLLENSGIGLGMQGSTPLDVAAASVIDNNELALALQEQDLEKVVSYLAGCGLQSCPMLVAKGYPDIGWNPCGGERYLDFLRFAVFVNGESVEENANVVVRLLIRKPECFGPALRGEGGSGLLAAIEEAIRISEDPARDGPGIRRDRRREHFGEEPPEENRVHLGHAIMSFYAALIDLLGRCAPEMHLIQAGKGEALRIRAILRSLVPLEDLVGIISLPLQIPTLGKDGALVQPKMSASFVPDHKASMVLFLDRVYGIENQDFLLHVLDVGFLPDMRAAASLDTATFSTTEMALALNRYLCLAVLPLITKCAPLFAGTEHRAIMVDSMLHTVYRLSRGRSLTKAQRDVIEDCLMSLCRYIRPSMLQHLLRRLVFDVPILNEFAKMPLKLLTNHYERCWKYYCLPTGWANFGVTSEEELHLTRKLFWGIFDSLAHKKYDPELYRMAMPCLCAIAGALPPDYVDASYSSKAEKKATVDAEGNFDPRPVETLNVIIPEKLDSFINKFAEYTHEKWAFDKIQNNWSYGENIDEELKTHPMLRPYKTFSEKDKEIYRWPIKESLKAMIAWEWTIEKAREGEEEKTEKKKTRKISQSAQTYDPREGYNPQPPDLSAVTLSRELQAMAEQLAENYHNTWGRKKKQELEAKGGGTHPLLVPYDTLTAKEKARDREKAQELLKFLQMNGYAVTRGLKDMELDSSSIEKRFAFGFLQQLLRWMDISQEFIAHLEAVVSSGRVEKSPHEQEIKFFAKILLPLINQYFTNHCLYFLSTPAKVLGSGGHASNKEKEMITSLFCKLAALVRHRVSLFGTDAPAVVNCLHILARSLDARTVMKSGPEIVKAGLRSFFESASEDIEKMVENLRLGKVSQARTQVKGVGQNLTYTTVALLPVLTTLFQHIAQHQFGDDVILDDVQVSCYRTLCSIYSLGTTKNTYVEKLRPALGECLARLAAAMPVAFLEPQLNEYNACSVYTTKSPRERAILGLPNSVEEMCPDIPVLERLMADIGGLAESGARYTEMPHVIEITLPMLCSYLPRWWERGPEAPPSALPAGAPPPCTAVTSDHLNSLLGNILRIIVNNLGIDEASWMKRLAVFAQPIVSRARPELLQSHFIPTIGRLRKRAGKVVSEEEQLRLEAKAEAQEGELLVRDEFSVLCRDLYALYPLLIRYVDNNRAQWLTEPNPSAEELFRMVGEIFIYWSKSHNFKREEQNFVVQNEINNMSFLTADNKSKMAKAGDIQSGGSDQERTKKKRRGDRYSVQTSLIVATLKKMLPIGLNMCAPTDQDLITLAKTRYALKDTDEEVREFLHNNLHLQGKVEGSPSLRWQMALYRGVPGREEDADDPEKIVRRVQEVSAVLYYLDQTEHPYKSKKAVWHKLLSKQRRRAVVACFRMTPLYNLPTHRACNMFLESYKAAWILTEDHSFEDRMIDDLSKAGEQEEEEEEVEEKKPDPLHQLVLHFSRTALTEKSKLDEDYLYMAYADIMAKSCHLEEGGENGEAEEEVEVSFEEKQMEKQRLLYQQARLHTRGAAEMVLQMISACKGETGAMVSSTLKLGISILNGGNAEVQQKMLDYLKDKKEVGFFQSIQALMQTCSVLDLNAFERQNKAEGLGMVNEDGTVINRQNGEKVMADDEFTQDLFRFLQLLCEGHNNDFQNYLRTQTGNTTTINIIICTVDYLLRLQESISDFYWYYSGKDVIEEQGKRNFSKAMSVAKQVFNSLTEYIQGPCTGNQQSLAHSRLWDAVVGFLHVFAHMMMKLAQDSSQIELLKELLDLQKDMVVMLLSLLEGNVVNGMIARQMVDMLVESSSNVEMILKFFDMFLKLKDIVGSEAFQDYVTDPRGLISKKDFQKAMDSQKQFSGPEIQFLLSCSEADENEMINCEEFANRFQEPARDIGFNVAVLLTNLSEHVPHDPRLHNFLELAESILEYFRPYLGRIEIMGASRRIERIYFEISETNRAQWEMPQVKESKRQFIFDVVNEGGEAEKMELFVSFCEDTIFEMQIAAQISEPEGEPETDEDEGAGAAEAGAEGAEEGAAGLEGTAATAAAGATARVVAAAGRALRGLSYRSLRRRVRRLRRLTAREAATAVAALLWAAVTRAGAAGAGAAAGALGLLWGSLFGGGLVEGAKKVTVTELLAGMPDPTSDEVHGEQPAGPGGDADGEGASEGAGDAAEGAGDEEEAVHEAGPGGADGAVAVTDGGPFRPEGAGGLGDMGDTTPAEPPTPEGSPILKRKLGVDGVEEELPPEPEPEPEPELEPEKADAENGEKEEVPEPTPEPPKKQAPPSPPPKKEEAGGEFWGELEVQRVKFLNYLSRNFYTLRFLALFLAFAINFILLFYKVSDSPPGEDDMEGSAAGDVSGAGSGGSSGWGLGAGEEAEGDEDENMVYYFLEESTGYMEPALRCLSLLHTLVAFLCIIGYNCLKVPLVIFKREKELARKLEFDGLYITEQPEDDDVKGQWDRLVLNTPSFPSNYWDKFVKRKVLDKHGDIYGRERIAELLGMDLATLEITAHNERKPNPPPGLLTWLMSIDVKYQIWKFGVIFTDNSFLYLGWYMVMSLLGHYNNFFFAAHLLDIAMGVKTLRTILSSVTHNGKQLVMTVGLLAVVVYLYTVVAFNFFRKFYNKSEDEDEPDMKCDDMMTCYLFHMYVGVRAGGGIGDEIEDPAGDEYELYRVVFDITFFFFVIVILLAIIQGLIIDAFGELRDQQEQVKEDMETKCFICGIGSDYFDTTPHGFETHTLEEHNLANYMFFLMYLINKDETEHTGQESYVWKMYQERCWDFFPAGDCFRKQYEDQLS
T1 sequence (P62942 2-108 limits assumed): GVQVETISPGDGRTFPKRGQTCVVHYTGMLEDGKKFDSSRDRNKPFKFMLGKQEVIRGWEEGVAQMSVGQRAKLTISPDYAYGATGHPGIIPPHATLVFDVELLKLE

COc1cccc(SCc2cn(CC(=O)O)nn2)c1 [AHK1, 1-carboxymethyl-4-[3-(methoxy)phenylthiomethyl]-1H-1,2,3-triazole]
in vitro acute toxicity against human myotubes [1]: do not show in vitro acute toxicity | grip strength compared to untreated littermates ([2]; after 2 weeks of treatment): increased significantly | increase of muscle strength ([2]; after 5 weeks of treatment, FIG. 4): 20% | Ratio of change vs. control, Akt1 ([3]; gene Akt1, MDX + AHK1, 5 weeks, tibialis anterior, untreated MDX 2.63): 1.42 | Ratio of change vs. control, Bcl2 ([3]; gene Bcl2, MDX + AHK1, 5 weeks, tibialis anterior, untreated MDX 1.94): 1.05 | Ratio of change vs. control, Bmp4 ([3]; gene Bmp4, MDX + AHK1, 5 weeks, tibialis anterior, untreated MDX 1.93): 2.08 | Ratio of change vs. control, Capn2 ([3]; gene Capn2, MDX + AHK1, 5 weeks, tibialis anterior, untreated MDX 2.90): 1.75 | Ratio of change vs. control, Casp3 ([3]; gene Casp3, MDX + AHK1, 5 weeks, tibialis anterior, untreated MDX 10.28): 5.27 | Ratio of change vs. control, Cast ([3]; gene Cast, MDX + AHK1, 5 weeks, tibialis anterior, untreated MDX 1.86): 1.49 | Ratio of change vs. control, Cav3 ([3]; gene Cav3, MDX + AHK1, 5 weeks, tibialis anterior, untreated MDX 3.28): 1.68 | Ratio of change vs. control, Cryab ([3]; gene Cryab, MDX + AHK1, 5 weeks, tibialis anterior, untreated MDX 3.08): 1.50 | Ratio of change vs. control, Ctnnb1 ([3]; gene Ctnnb1, MDX + AHK1, 5 weeks, tibialis anterior, untreated MDX 1.79): 1.27 | Ratio of change vs. control, Dag1 ([3]; gene Dag1, MDX + AHK1, 5 weeks, tibialis anterior, untreated MDX 2.27): 1.23 | Ratio of change vs. control, Des ([3]; gene Des, MDX + AHK1, 5 weeks, tibialis anterior, untreated MDX 2.14): 1.53 | Ratio of change vs. control, Dysf ([3]; gene Dysf, MDX + AHK1, 5 weeks, tibialis anterior, untreated MDX 2.15): 1.28 | Ratio of change vs. control, Foxo3 ([3]; gene Foxo3, MDX + AHK1, 5 weeks, tibialis anterior, untreated MDX 1.76): 1.14 | Ratio of change vs. control, Igf1 ([3]; gene Igf1, MDX + AHK1, 5 weeks, tibialis anterior, untreated MDX 2.87): 2.07 | Ratio of change vs. control, Igf2 ([3]; gene Igf2, MDX + AHK1, 5 weeks, tibialis anterior, untreated MDX 22.31): 9.78 | Ratio of change vs. control, Igfbp3 ([3]; gene Igfbp3, MDX + AHK1, 5 weeks, tibialis anterior, untreated MDX 1.77): 1.34 | Ratio of change vs. control, Igfbp5 ([3]; gene Igfbp5, MDX + AHK1, 5 weeks, tibialis anterior, untreated MDX 2.52): 1.43 | Ratio of change vs. control, Ikbkb ([3]; gene Ikbkb, MDX + AHK1, 5 weeks, tibialis anterior, untreated MDX 2.72): 1.62 | Ratio of change vs. control, Il1b ([3]; gene Il1b, MDX + AHK1, 5 weeks, tibialis anterior, untreated MDX 17.77): 2.82 | Ratio of change vs. control, Il6 ([3]; gene Il6, MDX + AHK1, 5 weeks, tibialis anterior, untreated MDX 32.72): 9.76 | Ratio of change vs. control, Lmna ([3]; gene Lmna, MDX + AHK1, 5 weeks, tibialis anterior, untreated MDX 5.29): 2.52 | Ratio of change vs. control, Mapk3 ([3]; gene Mapk3, MDX + AHK1, 5 weeks, tibialis anterior, untreated MDX 2.61): 1.69 | Ratio of change vs. control, Mmp9 ([3]; gene Mmp9, MDX + AHK1, 5 weeks, tibialis anterior, untreated MDX 4.51): 2.01 | Ratio of change vs. control, Musk ([3]; gene Musk, MDX + AHK1, 5 weeks, tibialis anterior, untreated MDX 3.51): 2.00 | Ratio of change vs. control, Myf5 ([3]; gene Myf5, MDX + AHK1, 5 weeks, tibialis anterior, untreated MDX 3.40): 2.13 | Ratio of change vs. control, Myod1 ([3]; gene Myod1, MDX + AHK1, 5 weeks, tibialis anterior, untreated MDX 4.27): 1.28 | Ratio of change vs. control, Myog ([3]; gene Myog, MDX + AHK1, 5 weeks, tibialis anterior, untreated MDX 17.36): 3.24 | Ratio of change vs. control, Nfkb1 ([3]; gene Nfkb1, MDX + AHK1, 5 weeks, tibialis anterior, untreated MDX 2.45): 1.67 | Ratio of change vs. control, Pax3 ([3]; gene Pax3, MDX + AHK1, 5 weeks, tibialis anterior, untreated MDX 2.16): 2.48 | Ratio of change vs. control, Pax7 ([3]; gene Pax7, MDX + AHK1, 5 weeks, tibialis anterior, untreated MDX 3.82): 2.55 | Ratio of change vs. control, Ppargc1b ([3]; gene Ppargc1b, MDX + AHK1, 5 weeks, tibialis anterior, untreated MDX 1.77): 1.23 | Ratio of change vs. control, Prkaa1 ([3]; gene Prkaa1, MDX + AHK1, 5 weeks, tibialis anterior, untreated MDX 2.33): 1.55 | Ratio of change vs. control, Prkag3 ([3]; gene Prkag3, MDX + AHK1, 5 weeks, tibialis anterior, untreated MDX 2.52): 2.68 | Ratio of change vs. control, Rhoa ([3]; gene Rhoa, MDX + AHK1, 5 weeks, tibialis anterior, untreated MDX 2.30): 1.80 | Ratio of change vs. control, Rps6kb1 ([3]; gene Rps6kb1, MDX + AHK1, 5 weeks, tibialis anterior, untreated MDX 1.77): 1.25 | Ratio of change vs. control, Tgfb1 ([3]; gene Tgfb1, MDX + AHK1, 5 weeks, tibialis anterior, untreated MDX 6.51): 3.61 | Ratio of change vs. control, Tnf ([3]; gene Tnf, MDX + AHK1, 5 weeks, tibialis anterior, untreated MDX 15.01): 10.27 | Ratio of change vs. control, Tnnc1 ([3]; gene Tnnc1, MDX + AHK1, 5 weeks, tibialis anterior, untreated MDX 25.00): 4.53 | Ratio of change vs. control, Tnnt1 ([3]; gene Tnnt1, MDX + AHK1, 5 weeks, tibialis anterior, untreated MDX 12.09): 3.37 | Ratio of change vs. control, Utrn ([3]; gene Utrn, MDX + AHK1, 5 weeks, tibialis anterior, untreated MDX 2.03): 1.35 | number of genes the expression of which was increased with respect to control (at least 1.75-fold) ([3]; mdx mice treated 5 weeks, 84 genes analyzed, 40 in untreated mdx): 20 | percentage of central nuclei [4]: significantly reduced | intracellular calcium levels at rest in MDX fibers [5]: brought intracellular calcium levels back to the control levels | dissociation of the RyR1-Calst1 complex in the presence of SIN1 [6]: partially prevented

Source: patent US11377427B2, “Triazoles for regulating intracellular calcium homeostasis” (UNIVERSIDAD DEL PAIS VASCO, priority 2016, dated 2022)
